We go through 1 molecule from patent US8148371B2, “Adenine compound and use thereof” (Dainippon Sumitomo Pharma Co., Ltd., priority 2002, dated 2012).

One data set concerns plasma esterase. To be noted: rat plasma, test compound 10 μM, 37° C., 15 minutes.
In the next data set the test system is cells of mouse spleen. Put plainly: cells. Format: cell-based, C3H/HeJ mouse. As to conditions: Mus musculus, 24 h, read-out: Minimum effective concentration (interferon inducing activity).
The test system of the next data set is IL-4. Put plainly: IL-4 in BALF supernatant on an asthma modeled mouse (ELISA). Format: in vivo, C57BL/6 mouse. As to conditions: 10 mg/kg nasally. The procedure:
(§1) C57BL/6 mouse was immunized by dermally administering denatured ovalbumin by heating (40 mg). Fourteen days later after the first immunization, ovalbumin (100 μg) was nasally busted. Twenty one days later after the first immunization, the solution (1 ml/kg) prepared by suspending the test compound (10 mg/kg) in physiological saline was nasally administered (10 μl/10 g/body weight). After 2 hours ovalbumin (100 μg) was nasally challenged. After 18 hours, bronchoalveolar lavege fluid (BALF) was collected, and the total number of leucocytes in BALF and fractioned leukocyte in the cytospin sample were measured. By ELISA method, IL-4 and IL-5 in the supernatant were measured. The number of leucocytes (inhibition %) was shown in Table 5 and the production inhibition activity of IL-4 and IL-5 (inhibition % to control) was shown in Table 6.

The subject of another data set is leucocytes in BALF. Put plainly: Amount of leucocytes in bronchoalveolar lavage fluid (BALF) on an asthma modeled mouse. Format: in vivo, C57BL/6 mouse. To be noted: 10 mg/kg nasally, BALF 18 hours after ovalbumin challenge. The procedure:
as §1

A short description of data set [1]: Metabolic stability on liver S9 of rat. To be noted: rat liver S9, test compound 1 μM, 37° C.
Another data set has as its system cells of rat spleen. Put plainly: cells. To be noted: 24 h, read-out: Minimum effective concentration (interferon inducing activity). Format: cell-based, SD rat.
The next data set has as its system IL-5. Put plainly: IL-5 in BALF supernatant on an asthma modeled mouse (ELISA). Format: in vivo, C57BL/6 mouse. As to conditions: 10 mg/kg nasally. The protocol:
as §1

In turn, `CCCCOc1nc(N)c2nc(O)n(Cc3ccc(C(=O)OC)o3)c2n1` [Example 15, 2-Butoxy-8-hydroxy-9-(5-methoxycarbonylfurfuryl)adenine] had a Residual rate with plasma esterase of 0%. Further, the minimal effective concentration in the data set on cells of mouse spleen amounted to 0.003 µM. Moreover, in the data set on IL-4, the “IL-4 production inhibition activity (inhibition % to control)” value was found to be 80%. Besides, in the data set on leucocytes in BALF, the “Acidophile (inhibition %)” value is recorded as 101%, the “Netrophile (inhibition %)” value is −92% and the “Number of total leukocyte (inhibition %)” value came to 84%. The molecule further came in with a Residual rate in data set [1] of 11%. In the data set with cells of rat spleen, the minimal effective concentration is 0.001 µM. For the same molecule, in the data set with IL-5, the “IL-5 production inhibition activity (inhibition % to control)” value came to 75%.
